Consider 2 compounds from BindingDB's records for patent US10934285 (Novartis, 2021).

The assay concerns the target T1, Tyrosine-protein phosphatase non-receptor type 11 (Homo sapiens, UniProt Q06124).
T1 sequence (Q06124 whole entry): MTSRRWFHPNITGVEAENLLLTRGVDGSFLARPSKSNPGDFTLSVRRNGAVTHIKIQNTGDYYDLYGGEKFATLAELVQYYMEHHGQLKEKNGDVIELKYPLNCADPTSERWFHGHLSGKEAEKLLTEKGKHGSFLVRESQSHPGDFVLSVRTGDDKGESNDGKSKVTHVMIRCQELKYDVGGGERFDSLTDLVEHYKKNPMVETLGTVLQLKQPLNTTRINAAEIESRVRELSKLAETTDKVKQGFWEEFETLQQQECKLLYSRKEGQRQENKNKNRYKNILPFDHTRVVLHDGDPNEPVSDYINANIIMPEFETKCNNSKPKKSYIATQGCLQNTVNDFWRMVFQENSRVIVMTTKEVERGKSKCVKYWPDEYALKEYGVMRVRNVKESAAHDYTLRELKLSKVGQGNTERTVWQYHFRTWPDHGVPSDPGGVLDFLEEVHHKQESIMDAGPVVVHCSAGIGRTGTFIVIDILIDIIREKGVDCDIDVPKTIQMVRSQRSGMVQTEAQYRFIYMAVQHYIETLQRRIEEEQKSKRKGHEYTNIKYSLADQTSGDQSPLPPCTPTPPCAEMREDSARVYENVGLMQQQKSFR
As to the kind of experiment: Inhibition Assay. As for the experimental part: After 30-60 minutes incubation at 25° C., the surrogate substrate DiFMUP (Invitrogen, cat #D6567) was added to the reaction and incubated at 25° C. for 30 minutes. The reaction was then quenched by the addition of 5 μl of a 160 μM solution of bpV(Phen) (Enzo Life Sciences cat #ALX-270-204). The fluorescence signal was monitored using a microplate reader (Envision, Perki-Elmer) using excitation and emission wavelengths of 340 nm and 450 nm, respectively. The inhibitor dose response curves were analyzed using normalized IC50 regression curve fitting with control based normalization.

Turning to `CN(c1cnc(Sc2cccc(NC(=O)c3c(O)nc4n(c3=O)CCCC4)c2Cl)c(N)n1)C1CC(C)(C)NC(C)(C)C1` [US10934285, Example 21], half-maximal inhibition (IC50) required 5380 nM. Then `CC1(CN)CCN(c2nnc(Sc3cccc(NC(=O)c4c(O)n5c(ccc6ccccc65)nc4=O)c3Cl)c(N)n2)CC1` [US10934285, Example 38], with 15 nM.

As usually defined, the IC50 is the concentration that gives 50% inhibition. The low end stands for greater potency, the high end for weaker potency.
